Experimental data as given in patent publication US8629116B2, “Method for inducing a TRIF-bias” (priority 2008, dated 2014).
Entries after “also recorded” stand apart in the source; their conditions may differ.

What was measured:
[1] = test system: THP-1 cells; test: Cytokine induction with dominant negative MyD88 or TRIF constructs in THP-1 macrophages; format: cell-based, human; settings: for induction of TRIF-dependent cytokines when TRIF is knocked down: dominant negative TRIF construct
Description: THP-1 cells are seeded in 12-well plates (5×10^5 cells/well) and incubated in 0.5 mL RPMI 1640 (ATCC) with 100 U/mL penicillin/100 ug/mL streptomycin (Sigma) with 20 ng/mL phorbol mystyric acid (PMA) (InvivoGen) for differentiation into macrophages. After differentiation of the THP-1, the media is changed to THP-1 media with 5 ng/mL PMA and the cells are transiently transfected with 0.5 μg/well of the pDeNy-hMyD88/LacZ, pDeNy-TRIF/LacZ, or pUNO-mcs (control)/LacZ plasmids and Fugene 6 transfection reagent for 48 h. Media is exchanged for fresh media and the cells are then stimulated with the indicated concentrations of TLR4 agonists for 14 hours. Harvested supernatants are assayed for cytokine levels by multiplex sandwich ELISA (R&D Systems) with the luminex platform. Control wells are assayed for transfection efficiency using the Invivogen LacZ Quantitation Kit.

[2] = test system: human primary monocytes; test: Western blot of human primary monocytes (IRAK-1, IRF-3); format: cell-based; settings: Western blot time course
Description: (§1) For Western blot and phospho-Western blot protein analysis, cells are lysed with Cell Lysis Buffer (Cell Signaling Technology, Danvers, Mass.) with Protease Inhibitor Cocktail (Sigma, St. Louis Mo.). Western Blot on PVDF membranes (Millipore) is performed using standard methods. Bands are detected with ECL Advance Western Blot kit (GE Healthcare, Piscataway, N.J.). Secondary Anti-Rabbit HRP antibody is obtainable from KPL, (Gaithersburg, Md.). Anti-βactin, anti-IRF-3, anti-phospho-IRF-3 (Ser396) and anti-IRAK1 antibodies are obtained from Cell Signaling Technology (Danvers, Mass.).
Degradation of the Serine/Threonine Kinase, IRAK-1, occurs downstream of MyD88-dependent TLR4 signaling (Hatao et al, 260-64; Neumann et al. 1089-94), while TRIF-dependent TLR4 signaling results in IRF-3 activation (Yamamoto et al. 6668-72; Yamamoto et al. 640-43). Here, human primary monocytes are stimulated with either CRX-547 or CRX-527 for the indicated times, and cellular lysates are analyzed by Western Blot for the levels of the MyD88 pathway-activated kinase, IRAK-1, and the TRIF pathway-activated transcription factor, IRF-3 (phospho-IRF-3 and total IRF-3). The levels of β-actin is used as the loading control.

[3] = test system: PBMCs from BALB/c mice; test: Cytokine induction in PBMCs from BALB/c mice; format: cell-based, mouse; settings: CRX-527 versus CRX-547; experiment performed once
Description: To determine whether PBMCs from mouse blood have similar profiles of MyD88 cytokines after CRX-527 or CRX-547 treatment, commercially available blood from BALB/c mice is tested with CRX-527 or CRX-547. (FIG. 24), Levels appear to be similar between the two groups tested.

[4] = test system: MM6 cells; test: Western blot of MM6 cells (IκBα, IRAK4, p38, IRF3); format: cell-based, human; settings: for IRAK-4 / total IκBα / TRIF-mediated signaling proteins (phospho-p38, total p38, IRF3, phospho-IRF3): 10 ng/ml; for TRIF-mediated signaling proteins (phospho-p38, total p38, IRF3, phospho-IRF3): difference between the two AGPs
Description: as §1
The role of MAPK signaling molecules in MyD88 versus TRIF signaling after TLR4 ligation is complicated because p38 is implicated in both pathways, however a role for p38 phosphorylation as an indicator of the TRIF pathway is indicated in the literature. […] To determine whether the phosphorylation state of p38 is different after stimulation with CRX-527 versus CRX-547, western blot analysis is performed on lysates from MM6 cells.
MAPK pathways and downstream transcription factors are differentially regulated by TLR agonists. Degradation of IRAK4 and IκBα are indicative of MyD88 after TLR4 signaling (Hatao et al. 260-64; Neumann et al. 1089-94), while TRIF-mediated TLR4 signaling results in IRF3 activation (Yamamoto et al. 6668-72; Yamamoto et al. 640-43). MM6 cells are stimulated with either CRX-547 or CRX-527 (10 ng/ml) for the indicated time. Cellular lysates are collected and Western Blot analysis of the MyD88 pathway proteins, Phospho-IκBα, total IκBα, IRAK4, and TRIF pathway proteins, phospho-p38, total IRF3 and phospho IRF3 is performed using βactin as the loading control.

[5] = biological target: T1, human TLR4, MD-2, CD14 (Homo sapiens, UniProt O00206+Q9Y6Y9); test: NF-κB reporter activity in HEK293 cells transfected with human TLR4/MD-2/CD14; format: cell-based; settings: HEK293 huTLR4/huMD-2/huCD14, NFκB reporter plasmid
T1 construct: host or cells: HEK293-hTLR4/hMD2/hCD14
T1 sequence (O00206 24-839): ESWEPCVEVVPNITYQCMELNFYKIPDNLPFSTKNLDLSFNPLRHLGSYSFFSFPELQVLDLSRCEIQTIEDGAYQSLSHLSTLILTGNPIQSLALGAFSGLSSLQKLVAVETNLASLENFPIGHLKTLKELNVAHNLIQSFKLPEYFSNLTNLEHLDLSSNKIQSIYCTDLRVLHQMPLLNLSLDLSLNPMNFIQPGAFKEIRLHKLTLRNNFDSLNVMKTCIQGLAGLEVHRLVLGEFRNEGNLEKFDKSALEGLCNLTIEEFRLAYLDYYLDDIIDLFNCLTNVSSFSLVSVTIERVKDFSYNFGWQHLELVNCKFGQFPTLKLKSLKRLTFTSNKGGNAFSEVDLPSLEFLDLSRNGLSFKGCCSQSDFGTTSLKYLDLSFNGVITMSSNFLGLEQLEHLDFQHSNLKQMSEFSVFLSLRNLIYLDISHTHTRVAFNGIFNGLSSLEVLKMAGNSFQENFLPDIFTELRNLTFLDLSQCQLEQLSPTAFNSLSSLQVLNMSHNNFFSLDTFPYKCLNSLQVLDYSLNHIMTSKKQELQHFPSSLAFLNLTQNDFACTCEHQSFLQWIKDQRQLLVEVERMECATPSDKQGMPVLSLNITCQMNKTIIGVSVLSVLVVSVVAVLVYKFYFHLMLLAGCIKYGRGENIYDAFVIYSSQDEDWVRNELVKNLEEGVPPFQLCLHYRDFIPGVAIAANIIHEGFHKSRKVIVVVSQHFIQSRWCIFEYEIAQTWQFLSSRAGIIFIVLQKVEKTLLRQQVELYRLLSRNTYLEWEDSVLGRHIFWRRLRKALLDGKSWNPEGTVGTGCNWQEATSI
T1 sequence (Q9Y6Y9 19-160): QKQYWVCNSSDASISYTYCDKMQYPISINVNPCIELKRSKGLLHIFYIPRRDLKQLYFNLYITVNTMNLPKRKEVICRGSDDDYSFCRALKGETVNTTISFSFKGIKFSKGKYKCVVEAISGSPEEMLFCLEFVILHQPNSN
Description: HEK293-hTLR4/hMD2/hCD14 cells are seeded in 12-well plates (4×10^5 cells/well) and are cultured until 40-60% confluent (2-3 days). The cells are transfected for 24 hours with 100 ng of NF-κB reporter construct expressing secreted human embryonic alkaline phosphatase under the control of an engineered ELAM promoter with five NF-κB sites (pNiFty2-SEA-InvivoGen; San Diego, Calif.) and a transfection control plasmid constitutively expressing a thymidine kinase promoter driven luciferase (Promega). […] After transfection, cells are stimulated for 14 h with TLR4 agonists, and the cleared supernatant is assayed for SEAP activity (SEAP Reporter Assay Kit-InvivoGen) to quantify NF-κB activation and luciferase activity (Promega) to normalize for transfection efficiency following supplied protocols.

[6] = biological target: T2, human TLR4 and murine MD-2 (UniProt O00206+Q9JHF9); test: NFκB promoter activity in HEK293 cells with chimeric human TLR4 and murine MD-2; format: cell-based, human/mouse; settings: HEK293 huTLR4/muMD-2
T2 construct: expressed in transfected cells; host or cells: HEK293
T2 sequence (O00206 24-839): as the sequence (O00206 24-839) above
T2 sequence (Q9JHF9 19-160): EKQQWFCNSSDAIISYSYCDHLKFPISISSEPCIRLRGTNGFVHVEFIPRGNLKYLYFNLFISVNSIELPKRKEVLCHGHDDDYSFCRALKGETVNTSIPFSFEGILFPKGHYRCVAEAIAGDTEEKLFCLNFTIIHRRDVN

[7] = Rabbit toxicology study by IM route; format: in vivo; settings: for hematology: granulocytosis: day 9 (2 days post-2°), resolves by day 21; for gross pathology: white discoloration of muscle along needle track and at site of injection: low dose (5 μg); for overall impression of toxicity: n=3 rabbits/group
Description: Groups of three rabbits (NZW—Western Oregon Rabbit Company, Philomath, Oreg.) are vaccinated with 1 mL diluted AGP, or MPL control, IM on days 0, 7 and 14. Two doses of AGP are evaluated. All animals are monitored for body weight, temperature, clinical condition and draize score. Animals are sacrificed one week post final administration. Blood is collected pretreatment, two days after the 2nd vaccination and upon sacrifice for hematology and clinical chemistry. Histopathology of injection sites and major organs are conducted according to standard practices. All animals are used in accordance with guidelines established by the Public Health Service and the Institutional Animal Care and Use Committee at GlaxoSmithKline Biologicals, Hamilton, Mont.
Toxicity of CRX-527, 524, 547 and compound 1 is evaluated in rabbits receiving AGP only by the intramuscular (IM) route. Groups of three rabbits are vaccinated with 1 mL diluted AGP, or MPL control, IM on days 0, 7 and 14. Two doses of AGP are evaluated: high (25 μg) and low (5 μg). All animals are monitored for body weight, temperature, clinical condition and draize score. Animals are sacrificed one week post final administration. Blood is collected pretreatment, two days after the 2nd vaccination and upon sacrifice for hematology and clinical chemistry. Histopathology of injection sites and major organs are conducted.

[8] = test system: human PBMC-derived macrophages; test: Cytokine/chemokine induction in the presence of the endocytosis inhibitor Dynasore; format: cell-based; settings: with Dynasore; for MyD88-dependent MIP-1α induction under inhibition of endocytosis: relative to non-treated cells
[9] = test system: RAW264.7 cells; test: Western blot of signaling proteins in RAW264.7 cells; format: cell-based, mouse; settings: 10 ng/ml, PMA pre-activated
Description: as §1
To determine whether the phosphorylation (activation) status of key protein signaling molecules in the TRIF versus MyD88 in RAW264.7 cells, cells are pre-activated with 10^−7M PMA) then stimulated with 10 ng/ml of the AGPs. Cellular lysates are prepared at 0, 15 m, 30 m, 45 m, 60 m, 120 m, 240 m, Similar to results in MM6 cells, IκBα degradation is faster after stimulation with CRX-527 compared to CRX-547 (FIG. 29). […] The increased reponsiveness of these cello could be due to the pre-activation with PMA, known to increase the maturation state of monocytic cells. CRX-547 induces expression of Phospho-IκBα and Phospho-IRF3. IRF3 is induced through TRIF mediated signaling. The amount of total IRF3 protein is also higher in the cells treated with CRX-547.

[10] = test system: human PBMC-derived monocytes; test: Cytokine/chemokine gene expression (qPCR time course) in human PBMC-derived monocytes; format: cell-based; settings: for time of highest IFNβ gene induction: qPCR time course
Text: Initial experiments include time course analysis of MyD88- and TRIF-dependent cytokine gene induction using qPCR.

[11] = dominant negative MyD88 construct

| SMILES | induction of MyD88-dependent cytokine (TNFα) when MyD88 signaling is inhibited [1, 11] | induction of TRIF-dependent cytokines when TRIF is knocked down [1] | IRAK-1 level (MyD88 pathway) [2] | MyD88 cytokine levels [3] | IRAK-4 [4] | total IκBα [4] | TRIF-mediated signaling proteins (phospho-p38, total p38, IRF3, phospho-IRF3) [4] | NF-κB promoter/reporter activation [5] | induction of promoter activity, CRX-527 versus CRX-547 [6] | gross pathology: white discoloration of muscle along needle track and at site of injection [7] | overall impression of toxicity [7] | TRIF-dependent RANTES induction under inhibition of endocytosis [8] | MyD88-dependent MIP-1α induction under inhibition of endocytosis [8] | time of highest IFNβ gene induction [10] [h] | also measured |
| --- | --- | --- | --- | --- | --- | --- | --- | --- | --- | --- | --- | --- | --- | --- | --- |
| CCCCCCCCCCCC(CC(=O)NC(COC1OC(CO)C(OP(=O)(O)O)C(OC(=O)CC(CCCCCCCCCCC)OC(=O)CCCCCCCCC)C1NC(=O)CC(CCCCCCCCCCC)OC(=O)CCCCCCCCC)C(=O)O)OC(=O)CCCCCCCCC.CCN(CC)CC (stereo not shown) [CRX-527] | significantly reduced | reduced to a similar extent | rapid decrease; also recorded: greater degradation | similar | rapid decrease; also recorded: greater degradation | rapid decrease | little or difference | significantly higher activation | large relative difference | seen | mildly toxic | inhibits | increases slightly | 1 | induction of TRIF-dependent cytokine RANTES when MyD88 signaling is inhibited [1, 11]: only slightly reduced; phosphorylation state of p38 ([4]; compared to CRX-547): slight increase; injection site histopathology (myositis) ([7]; high dose): most consistent and greatest; hematology: granulocytosis ([7]; high dose): trend of granulocytosis; hematology: granulocytosis ([7]; low dose): trend of granulocytosis; IκBα degradation ([9]; CRX-527 compared to CRX-547): faster; MyD88-dependent cytokine/chemokine gene expression [10]: greater; TRIF-dependent cytokine/chemokine gene expression [10]: greater |
| CCCCCCCCCCCC(CC(=O)NC(COC1OC(CO)C(OP(=O)(O)O)C(OC(=O)CC(CCCCCCCCCCC)OC(=O)CCCCCCCCC)C1NC(=O)CC(CCCCCCCCCCC)OC(=O)CCCCCCCCC)C(=O)O)OC(=O)CCCCCCCCC.CCN(CC)CC (stereo not shown) [CRX-547] | unaffected | reduced to a similar extent | delayed and reduced degradation | similar | delayed and less degradation | delayed and less degradation | little or difference | less NFκB reporter activity | large relative difference | not | minimally toxic | inhibits | increases slightly | 1 | injection site histopathology (myositis) ([7]; low dose): no muscle pathology; IRF3 phosphorylation ([9]; performed once): higher degree; IκBα phosphorylation ([9]; performed once): higher degree; amount of total IRF3 protein ([9]; performed once): higher |
